{"source": "patent US11453632B2", "about": "“1-phenyl-2-phenylethane derivative” (KAO CORPORATION, priority 2018, dated 2022)", "system": "back skin browning induced by testosterone", "test": "Effect on sebum secretion (back skin browning) in testosterone-treated rat", "format": "in vivo", "settings": "testosterone 3 mg/kg/day plus test substance, subcutaneous osmotic pump, 28 days", "description": "12-week-old male Slc:SD (SPF) rats were obtained from Japan SLC, Inc. An acclimatization period was established for 1 week after receipt. During the acclimatization period, the rats were allowed to freely ingest a powder diet (AIN-93G). 2) Implantation of Osmotic Pump After body weight measurement, back hair was shaved under isoflurane (AbbVie GK) inhalation anesthesia, and carprofen was subcutaneously administered to the rats. Then, an incision of approximately 1 cm at the maximum was made on the cranial side in the back. An osmotic minipump Alzet (Muromachi Kikai Co., Ltd.) containing testosterone and compound 17-F or finasteride (Sigma-Aldrich Co. LLC) was subcutaneously implanted. From this osmotic pump, testosterone (3 mg/kg body weight/day) (Sigma-Aldrich Co. LLC) and compound 17-F (0.1 mg/body weight/day or 1 mg/kg body weight/day) or finasteride (0.1 mg/kg body weight/day or 1 mg/kg body weight/day) were continuously administered for 28 days. Since the implantation of the osmotic pump, the rats were allowed to freely ingest customized feed AIN-93G (Oriental Yeast Co., Ltd.) free from components derived from soybeans. 3) Photographing of Skin and Harvesting of Prostate After a lapse of 28 days, body weights were measured, and subsequently, the rats were euthanized by blood letting under isoflurane anesthesia. […] Wet weights were measured. […]"}
{"smiles": "Oc1ccc(CC(C=C(F)F)c2ccc(O)cc2F)c(F)c1", "note": "(stereo not shown) [Compound 17-F, 4,4′-(4,4-difluorobut-3-ene-1,2-diyl)bis(3-fluorophenol)]", "values": [{"measurement": "skin browning induced by testosterone (sebum secretion, FIG. 3)", "value": "markedly inhibited"}]}
